Test results from patent publication US5519022A, “α, α dialkylbenzyl derivatives” (Imperial Chemical Industries Plc, priority 1991, dated 1996).

target: T1, 5-LO (Homo sapiens, UniProt P09917); experiment: Test a) in vitro inhibition of LTB4 production in A23187-challenged heparinised human blood (radioimmunoassay); assay type: cell-based; conditions: calcium ionophore A23187 challenge
T1 construct: effects of a test compound against 5-LO and also cyclooxygenase in the presence of blood cells and proteins; endogenous in cells; host or cells: blood cells in heparinised human blood challenged with calcium ionophore A23187
T1 sequence (P09917 1-674): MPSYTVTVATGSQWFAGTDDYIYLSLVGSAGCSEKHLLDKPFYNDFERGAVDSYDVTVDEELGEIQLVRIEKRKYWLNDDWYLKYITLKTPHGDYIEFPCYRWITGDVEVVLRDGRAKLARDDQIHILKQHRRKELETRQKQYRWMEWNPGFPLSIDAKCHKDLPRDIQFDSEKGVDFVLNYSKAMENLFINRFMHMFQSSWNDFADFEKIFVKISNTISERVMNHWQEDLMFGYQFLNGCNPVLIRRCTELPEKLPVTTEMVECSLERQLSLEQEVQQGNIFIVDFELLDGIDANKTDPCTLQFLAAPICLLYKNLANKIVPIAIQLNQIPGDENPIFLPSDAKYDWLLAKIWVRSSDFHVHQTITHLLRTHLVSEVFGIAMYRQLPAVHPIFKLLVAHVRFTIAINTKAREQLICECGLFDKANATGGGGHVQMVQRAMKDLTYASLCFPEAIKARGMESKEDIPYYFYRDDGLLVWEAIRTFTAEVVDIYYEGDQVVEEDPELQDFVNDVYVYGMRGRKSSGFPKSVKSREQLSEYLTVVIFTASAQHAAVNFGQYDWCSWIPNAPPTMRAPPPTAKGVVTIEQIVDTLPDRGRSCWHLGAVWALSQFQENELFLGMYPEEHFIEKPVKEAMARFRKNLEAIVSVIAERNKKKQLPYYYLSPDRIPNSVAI
Description: a) An in vitro assay system involving incubating a test compound with heparinised human blood, prior to challenge with the calcium ionophore A23187 and then indirectly measuring the inhibitory effects on 5-LO by assaying the amount of LTB4 using specific radioimmunoassays described by Carey and Forder (F. Carey and R. A. Forder, Prostaglandins, Leukotrienes Med., 1986, 22, 57; Prostaglandins, 198, 28, 666; Brit. J. Pharmacol. 1985, 84, 34P) which involve the use of a protein-LTB4 conjugate produced using the procedure of Young et alia (Prostaglandins, 1983, 26(4), 605-613). The effects of a test compound on the enzyme cyclooxygenase (which is involved in the alternative metabolic pathway for arachidonic acid and gives rise to prostaglandins, thromboxanes and related metabolites) may be measured at the same time using the specific radioimmunoassay for thromboxane B2 (TxB2) described by Carey and Forder (see above). This test provides an indication of the effects of a test compound against 5-LO and also cyclooxygenase in the presence of blood cells and proteins. It permits the selectivity of the inhibitory effect on 5-LO or cyclooxygenase to be assessed.

SMILES | IC50 [nM]
C=CCC(C#N)(CC=C)c1cccc(OCc2ccc3c(ccc(=O)n3C)c2)c1 [2,2-diallyl-2-[3-(1-methyl-2-oxo-1,2-dihydroquinolin-6-ylmethoxy)phenyl]acetonitrile] | 50
CCC(C#N)(CC)c1cccc(OCc2ccc3c(ccc(=O)n3C)c2)c1 [2-ethyl-2-[3-(1-methyl-2-oxo-1,2-dihydroquinolin-6-ylmethoxy)phenyl]butyronitrile] | 500
CCC(C)(C#N)c1cccc(OCc2ccc3c(ccc(=O)n3C)c2)c1 (stereo not shown) [2-methyl-2-[3-(1-methyl-2-oxo-1,2-dihydroquinolin-6-ylmethoxy)phenyl]butyronitrile] | 80
CCC(CC)(C(C)=O)c1cccc(OCc2ccc3c(ccc(=O)n3C)c2)c1 [3-ethyl-3-[3-(1-methyl-2-oxo-1,2-dihydroquinolin-6-ylmethoxy)phenyl]pentan-2-one] | 150
